Here are results for 22 compounds from patent US10428087B2, “Pyrimidinones as PI3K inhibitors” (Incyte Corporation, priority 2009, dated 2019).

Structures can show the parent of a compound that is named as a salt.

The subject of this test is Pfeiffer cell line (diffuse large B cell lymphoma). Description: Pfeiffer cell proliferation assay (Example B2). The note with it: Homo sapiens, Pfeiffer, Pfeiffer cells, [3H]-thymidine. It counts as cell-based. As to the method: Pfeiffer cell line (diffuse large B cell lymphoma) was purchased from ATCC (Manassas, Va.) and maintained in the culture medium recommended (RPMI and 10% FBS). To measure the anti-proliferation activity of the PI3Kδ submittals, the Pfeiffer cells were plated with the culture medium (2×10^3 cells/well/per 200 μl) into 96-well ultra-low binding plates (Corning, Corning, N.Y.), in the presence or absence of a concentration range of test compounds. After 3-4 days, [^3H]-thymidine (1 μCi/well) (PerkinElmer, Boston, Mass.) in PBS was then added to the cell culture for an additional 12 hrs before the incorporated radioactivity was separated by filtration with water through GF/B filters (Packard Bioscience, Meridenj, Conn.) and measured by liquid scintillation counting with a TopCount (Packard Bioscience). See Table 3 for data related to compounds of the invention.
As a reminder, the IC50 is the concentration that inhibits the measured activity by half. A lower IC50 goes with higher potency. As for `Cc1csc2nc(C(C)Nc3ncnc4[nH]cnc34)c(-c3cc(F)cc(F)c3)c(=O)n12` (stereo not shown) [Example 12, 6-(3,5-difluorophenyl)-3-methyl-7-[1-(9H-purin-6-ylamino)ethyl]-5H-[1,3]thiazolo[3,2-a]pyrimidin-5-one], the half-inhibitory concentration (IC50) fell in the range of 100 to 500 nM. As for `Cc1csc2nc(C(C)Nc3ncnc4[nH]cnc34)c(-c3ccccn3)c(=O)n12` (stereo not shown) [Example 14, 3-methyl-7-[1-(9H-purin-6-ylamino)ethyl]-6-pyridin-2-yl-5H-[1,3]thiazolo[3,2-a]pyrimidin-5-one], the figure is more than 1000 nM; as for `Cc1csc2nc([C@H](C)Nc3ncnc4[nH]ccc34)c(-c3cc(F)cc(F)c3)c(=O)n12` [Example 17, 6-(3,5-difluorophenyl)-3-methyl-7-[1-(7H-pyrrolo[2,3-d]pyrimidin-4-ylamino)ethyl]-5H-[1,3]thiazolo[3,2-a]pyrimidin-5-one], 100 to 500 nM; as for `Cc1csc2nc(C(C)Nc3nc(F)nc4[nH]cnc34)c(-c3cc(F)cc(F)c3)c(=O)n12` (stereo not shown) [Example 18, 6-(3,5-difluorophenyl)-7-{1-[(2-fluoro-9H-purin-6-yl)amino]ethyl}-3-methyl-5H-[1,3]thiazolo[3,2-a]pyrimidin-5-one], 50 to 100 nM. As for `Cc1csc2nc(C(C)Nc3ncnc4[nH]cnc34)c(-c3ccncc3)c(=O)n12` (stereo not shown) [Example 19, 3-methyl-7-[1-(9H-purin-6-ylamino)ethyl]-6-pyridin-4-yl-5H-[1,3]thiazolo[3,2-a]pyrimidin-5-one], the figure is more than 1000 nM; as for `Cc1csc2nc(C(C)Nc3ncnc4[nH]cnc34)c(-c3nccs3)c(=O)n12` (stereo not shown) [Example 20, 3-methyl-7-[1-(9H-purin-6-ylamino)ethyl]-6-(1,3-thiazol-2-yl)-5H-[1,3]thiazolo[3,2-a]pyrimidin-5-one trifluoroacetic acid salt], 50 to 100 nM. As for `Cc1csc2nc(C(C)Nc3ncnc4[nH]cnc34)c(-c3cscn3)c(=O)n12` (stereo not shown) [Example 21, 3-methyl-7-[1-(9H-purin-6-ylamino)ethyl]-6-(1,3-thiazol-4-yl)-5H-[1,3]thiazolo[3,2-a]pyrimidin-5-one trifluoroacetic acid salt], the figure is 50 to 100 nM; as for `Cc1csc2nc(C(C)Nc3ncnc4[nH]cnc34)c(-c3ccc(F)cc3)c(=O)n12` (stereo not shown) [Example 22, 6-(4-fluorophenyl)-3-methyl-7-[1-(9H-purin-6-ylamino)ethyl]-5H-[1,3]thiazolo[3,2-a]pyrimidin-5-one trifluoroacetic acid salt], 100 to 500 nM.

In turn, `CC(Nc1nc(N)nc2[nH]cnc12)c1nc2sccn2c(=O)c1-c1cc(F)cc(F)c1` (stereo not shown) [Example 24, 7-{1-[(2-amino-9H-purin-6-yl)amino]ethyl}-6-(3,5-difluorophenyl)-5H-[1,3]thiazolo[3,2-a]pyrimidin-5-one] returned an IC50 of 100 to 500 nM.

On to `CC(Nc1ncnc2[nH]cnc12)c1nc2sccn2c(=O)c1-c1cc(F)cc(F)c1` (stereo not shown) [Example 25, 6-(3,5-difluorophenyl)-7-[1-(9H-purin-6-ylamino)ethyl]-5H-[1,3]thiazolo[3,2-a]pyrimidin-5-one], for which the half-inhibitory concentration (IC50) is 500 to 1000 nM. With `CC(Nc1nc(N)nc2[nH]cnc12)c1nc2sccn2c(=O)c1-c1ccccc1` (stereo not shown) [Example 27, 7-{1-[(2-amino-9H-purin-6-yl)amino]ethyl}-6-phenyl-5H-[1,3]thiazolo[3,2-a]pyrimidin-5-one], the half-maximal inhibitory concentration (IC50) is 100 to 500 nM. As for `Cc1ccc(-c2c(C(C)Nc3ncnc4[nH]cnc34)nc3scc(C)n3c2=O)cc1` (stereo not shown) [Example 31, 3-methyl-6-(4-methylphenyl)-7-[1-(9H-purin-6-ylamino)ethyl]-5H-[1,3]thiazolo[3,2-a]pyrimidin-5-one trifluoroacetic acid salt], the figure is 100 to 500 nM. Next, `Cc1csc2nc(C(C)Nc3nc(N)nc4[nH]cnc34)c(-c3cccc(Cl)c3)c(=O)n12` (stereo not shown) [Example 32, 7-{1-[(2-amino-9H-purin-6-yl)amino]ethyl}-6-(3-chlorophenyl)-3-methyl-5H-[1,3]thiazolo[3,2-a]pyrimidin-5-one trifluoroacetic acid salt]: less than 50 nM. As for `Cc1csc2nc(C(C)Nc3nc(N)nc4[nH]cnc34)c(-c3ccccc3F)c(=O)n12` (stereo not shown) [Example 33, 7-{1-[(2-amino-9H-purin-6-yl)amino]ethyl}-6-(2-fluorophenyl)-3-methyl-5H-[1,3]thiazolo[3,2-a]pyrimidin-5-one trifluoroacetic acid salt], the figure is less than 50 nM. Consider `Cc1csc2nc(C(C)Nc3nc(N)nc4[nH]cnc34)c(-c3cccc(F)c3F)c(=O)n12` (stereo not shown) [Example 34, 7-{1-[(2-amino-9H-purin-6-yl)amino]ethyl}-6-(2,3-difluorophenyl)-3-methyl-5H-[1,3]thiazolo[3,2-a]pyrimidin-5-one trifluoroacetic acid salt], for which the 50% inhibitory concentration (IC50) is less than 50 nM. Next, `Cc1csc2nc(C(C)Nc3nc(N)nc4[nH]cnc34)c(-c3cc(F)cc(Cl)c3)c(=O)n12` (stereo not shown) [Example 35, 7-{1-[(2-amino-9H-purin-6-yl)amino]ethyl}-6-(3-chloro-5-fluorophenyl)-3-methyl-5H-[1,3]thiazolo[3,2-a]pyrimidin-5-one trifluoroacetic acid salt]: less than 50 nM; `Cc1csc2nc(C(C)Nc3ncnc4[nH]cnc34)c(-c3cccc(Cl)c3)c(=O)n12` (stereo not shown) [Example 36, 6-(3-chlorophenyl)-3-methyl-7-[1-(9H-purin-6-ylamino)ethyl]-5H-[1,3]thiazolo[3,2-a]pyrimidin-5-one trifluoroacetic acid salt]: 50 to 100 nM. As for `Cc1csc2nc(C(C)Nc3ncnc4[nH]cnc34)c(-c3cc(F)cc(Cl)c3)c(=O)n12` (stereo not shown) [Example 37, 6-(3-chloro-5-fluorophenyl)-3-methyl-7-[1-(9H-purin-6-ylamino)ethyl]-5H-[1,3]thiazolo[3,2-a]pyrimidin-5-one trifluoroacetic acid salt], the figure is 50 to 100 nM; as for `Cc1csc2nc(C(C)Nc3nc(N)nc4[nH]cnc34)c(-c3cncc(F)c3)c(=O)n12` (stereo not shown) [Example 38, 7-{1-[(2-amino-9H-purin-6-yl)amino]ethyl}-6-(5-fluoropyridin-3-yl)-3-methyl-5H-[1,3]thiazolo[3,2-a]pyrimidin-5-one trifluoroacetic acid salt], 50 to 100 nM.

In turn, `Cc1csc2nc(C(C)Nc3ncnc4[nH]cnc34)c(-c3ccccc3F)c(=O)n12` (stereo not shown) [Example 40, 6-(2-fluorophenyl)-3-methyl-7-[1-(9H-purin-6-ylamino)ethyl]-5H-[1,3]thiazolo[3,2-a]pyrimidin-5-one trifluoroacetic acid salt] showed a half-maximal inhibitory concentration (IC50) of 50 to 100 nM.

`Cc1csc2nc(C(C)Nc3ncnc4[nH]cnc34)c(-c3cccc(F)c3F)c(=O)n12` (stereo not shown) [Example 41, 6-(2,3-difluorophenyl)-3-methyl-7-[1-(9H-purin-6-ylamino)ethyl]-5H-[1,3]thiazolo[3,2-a]pyrimidin-5-one trifluoroacetic acid salt] had a half-maximal inhibitory concentration (IC50) of 50 to 100 nM. As for `Cc1csc2nc(C(C)Nc3ncnc4[nH]cnc34)c(-c3cncc(F)c3)c(=O)n12` (stereo not shown) [Example 42, 6-(5-fluoropyridin-3-yl)-3-methyl-7-[1-(9H-purin-6-ylamino)ethyl]-5H-[1,3]thiazolo[3,2-a]pyrimidin-5-one trifluoroacetic acid salt], the figure is 100 to 500 nM.
